These results are taken from patent publication US20030225152A1, “3-(Arylamino)methylene-1, 3-dihydro-2h-indol-2-ones as kinase inhibitors” (priority 2001, published 2003).

A value given as a limit tells only on which side of the number the result lay.

Assay [1] deals with VEGF induced increases in intracellular calcium levels in HUVEC (human umbilical vein endothelial cells). The assay is described as follows: VEGF Stimulated Ca++ Signal in vitro (FLIPR). The note with it: VEGF 5 ng/mL; for IC50: 0.01 to 10.0 μM. In kind it is cell-based. In short, it runs like this:
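HUVEC loaded with Fluo-4 (45 min, 37° C.), washed, then pre-incubated 30 min with compound (10 μM single dose or 0.01–10.0 μM; 0.1% DMSO) before 5 ng/mL VEGF. Fluorescence at 516 nm read by FLIPR; IC50 from % inhibition of max-min VEGF response.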

In assay [2] the target is T1, cytoplasmic domain of the human VEGF receptor (VEGFR-2) (Homo sapiens, UniProt P35968).
T1 construct: The cytoplasmic domain of the human VEGF receptor (VEGFR-2) was expressed as a Histidine-tagged fusion protein; Histidine tag
In words: KDR Assay. In kind it is biochemical. The note with it: His-VEGFR-2; 3.6 μM ATP. In short, it runs like this:
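His-tagged human VEGFR-2 cytoplasmic domain from baculovirus-infected insect cells, acting on poly-Glu-Tyr (4:1)-coated plates with 3.6 μM ATP in Hepes pH 7.4 with MgCl2/MnCl2 and 5% final DMSO, 10 min at 25 °C. Phosphotyrosine detected by peroxidase-conjugated antibody ELISA at 492 nm; IC50 from blank-subtracted OD versus concentration.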

Assay [3] deals with VEGF-induced EBD extravasation. The assay is described as follows: VEGF-induced Dermal Extravasation in Guinea Pig (Miles Assay). Type of assay: in vivo. Here is the method: VEGF-induced Dermal Extravasation in Guinea Pig (Miles Assay). Male Hartley guinea pigs (300-600 g) were anesthetized with isofluorane, sheared, and given a single dose of drug or the respective vehicle. The guinea pigs were dosed orally unless indicated otherwise in Table 3. Ten minutes prior to the end of drug treatment, guinea pigs were anesthetized with isofluorane, and 0.5% Evans blue dye (EBD) in PBS (13-15 mg/kg dose of EBD) was injected intravenously. After 5 minutes, triplicate intradermal injections of 100 ng rhVEGF165 in 100 μl PBS and of 100 μl PBS alone were administered on the flank. After 20 minutes, each animal was euthanized with Pentosol, and the skin containing the intradermal injection sites was removed for image analysis.
Using an analog video camera coupled to a PC, an image of each trans-illuminated skin sample was captured, and the integrated optical density of each injection site was measured using ImagePro 4. For each skin sample, the difference between the mean optical density of the VEGF sites and mean optical density of the PBS sites is the measure of VEGF-induced EBD extravasation in that animal. These measured values were averaged per study group to determine the mean VEGF-induced EBD extravasation for each experimental condition, and the group means were then compared to assess inhibition of VEGF-induced EBD extravasation in the drug-treated groups relative to the vehicle-treated controls.
To determine the dose required for 50% inhibition (ID50), the percent inhibition data was plotted as a function of oral dose, using the ‘best-fit’ analysis within MicroSoft Excel software. The ID50 value was verified visually by using the plotted data (horizontal line from 50% y value, at intersection with best-fit line drop vertical line to x axis (dose)).

T1 sequence (P35968 786-1356): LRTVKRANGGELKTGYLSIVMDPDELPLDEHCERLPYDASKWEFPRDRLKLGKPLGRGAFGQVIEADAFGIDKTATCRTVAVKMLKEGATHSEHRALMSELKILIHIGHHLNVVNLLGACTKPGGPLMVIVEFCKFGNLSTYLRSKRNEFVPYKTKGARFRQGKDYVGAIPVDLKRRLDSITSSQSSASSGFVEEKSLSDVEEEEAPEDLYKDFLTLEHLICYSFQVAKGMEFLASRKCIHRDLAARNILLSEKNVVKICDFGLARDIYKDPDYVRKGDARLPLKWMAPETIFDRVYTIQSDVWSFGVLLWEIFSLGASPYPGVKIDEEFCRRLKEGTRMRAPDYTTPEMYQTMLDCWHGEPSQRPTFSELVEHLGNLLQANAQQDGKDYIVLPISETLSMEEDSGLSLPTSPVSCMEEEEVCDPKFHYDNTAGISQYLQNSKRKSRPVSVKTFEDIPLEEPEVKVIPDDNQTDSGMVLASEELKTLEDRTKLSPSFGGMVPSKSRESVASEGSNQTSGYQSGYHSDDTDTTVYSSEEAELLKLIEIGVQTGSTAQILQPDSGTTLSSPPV

In the case of `O=C1Nc2ccc(F)cc2C1=CNc1ccc(N2CCOCC2)cc1` [Example 167, 5-Fluoro-3-[(4-morpholin-4-yl-phenylamino)-methylene]-1,3-dihydro-indol-2-one], the inhibition at 10 µM in assay [1] (Homo sapiens) was found to be 95.7%. This compound had a half-inhibitory concentration (IC50) in assay [2] of 190 nM. Also, the “Miles Assay % inhibition” value in assay [3] (75 mg/kg, PEG400, oral) worked out at 31%.
With `CCN(CC)CCCCOc1ccc(NC=C2C(=O)Nc3ccccc32)cc1` [Example 207, 3-{[4-(4-Diethylamino-butoxy)-phenylamino]-methylene}-1,3-dihydro-indol-2-one], the IC50 in assay [1] is 510 nM; in assay [1] (Homo sapiens), at most 1000 nM; in assay [2], 240 nM. Also, in assay [1] (Homo sapiens), the inhibition at 10 µM was 98.6%. Besides, the “Miles Assay % inhibition” value in assay [3] (75 mg/kg, corn oil, oral) was 80%.
Regarding `Cc1cccc2c1C(=CNc1ccc(N3CC(C)OC(C)C3)cc1)C(=O)N2` (stereo not shown) [Example 220, 3-{[4-(2,6-Dimethyl-morpholin-4-yl)-phenylamino]-methylene}-4-methyl-1,3-dihydro-indol-2-one], in assay [1] (Homo sapiens), the inhibition at 10 µM is 94.9%. The compound further displayed an IC50 in assay [2] of 60 nM. The “Miles Assay % inhibition” value in assay [3] (75 mg/kg, PEG400, oral) came out at 39%.
`CCN(CC)CCOc1ccc(NC=C2C(=O)Nc3cc(F)ccc32)cc1` [Example 266, 3-{[4-(2-Diethylamino-ethoxy)-phenylamino]-methylene}-6-fluoro-1,3-dihydro-indol-2-one] gave an IC50 in assay [2] of 170 nM. Besides, in assay [3] (40 mg/kg, corn oil, oral), the “Miles Assay % inhibition” value was 82%.
Regarding `O=C1Nc2cc(F)ccc2C1=CNc1ccc(OCCCCN2CCCCC2)cc1` [Example 247, 6-Fluoro-3-{[4-(4-piperidin-1-yl-butoxy)-phenylamino]-methylene}-1,3-dihydro-indol-2-one], in assay [2], the IC50 amounted to 200 nM. Moreover, in assay [3] (75 mg/kg, corn oil, oral), the “Miles Assay % inhibition” value was 45%.
On to `CCN(CC)CCCOc1ccc(NC=C2C(=O)Nc3cc(F)ccc32)cc1F` [Example 250, 3-{[4-(3-Diethylamino-propoxy)-3-fluoro-phenylamino]-methylene}-6-fluoro-1,3-dihydro-indol-2-one], for which half-maximal inhibition in assay [2] (IC50) was put at 150 nM. Further, in assay [3] (75 mg/kg, corn oil, oral), the “Miles Assay % inhibition” value is recorded as 62%.
Taken in the same sequence, the figures for `CCN(CC)CCCOc1ccc(NC=C2C(=O)Nc3cccc(C)c32)cc1F` [Example 249, 3-{[4-(3-Diethylamino-propoxy)-3-fluoro-phenylamino]-methylene}-4-methyl-1,3-dihydro-indol-2-one] were 70 nM and 29%.
In the case of `CCN(CC)CCCOc1ccc(NC=C2C(=O)Nc3cccc(F)c32)cc1F` [Example 267, 3-{[4-(3-Diethylamino-propoxy)-3-fluoro-phenylamino]-methylene}-4-fluoro-1,3-dihydro-indol-2-one], the IC50 in assay [1] (Homo sapiens) was found to be 1420 nM; in assay [2], 230 nM.
In the case of `O=C1Nc2ccc([N+](=O)[O-])cc2C1=CNc1ccc(N2CCOCC2)cc1` [Example 236, 3-[(4-Morpholin-4-yl-phenylamino)-methylene]-5-nitro-1,3-dihydro-indol-2-one], the inhibition at 10 µM in assay [1] (Homo sapiens) was 7.2%. In assay [2], this compound came in with an IC50 of 970 nM.
Regarding `O=C1Nc2ccc(F)cc2C1=CNc1ccc(CO)cc1` [Example 178, 5-Fluoro-3-[(4-hydroxymethyl-phenylamino)-methylene]-1,3-dihydro-indol-2-one], in assay [1] (Homo sapiens), the inhibition at 10 µM amounted to 98.8% and the IC50 worked out at 1060 nM. The compound further came in with a half-inhibitory concentration (IC50) in assay [2] of 530 nM.
As to `Cc1cccc2c1C(=CNc1ccc(CCCC(=O)O)cc1)C(=O)N2` [Example 140, 4-{4-[(4-Methyl-2-oxo-1,2-dihydro-indol-3-ylidenemethyl)-amino]-phenyl}-butyric acid], in assay [1] (Homo sapiens), the inhibition at 10 µM was 96.9%. This compound also showed an IC50 in assay [2] of 400 nM.
For the compound `O=C(O)Cc1ccc(NC=C2C(=O)Nc3ccccc32)cc1` [Example 224, 3-[(4-Carboxymethylphenylamino)-methylene]-1,3-dihydro-indol-2-one], in assay [1] (Homo sapiens), the inhibition at 10 µM amounted to 56.2% and the concentration for half-maximal inhibition (IC50) is 6310 nM. In assay [2], this compound yielded an IC50 of 2270 nM.
For the compound `COc1ccc(NC=C2C(=O)Nc3ccc(F)cc32)cc1O` [Example 164, 5-Fluoro-3-[(3-hydroxy-4-methoxy-phenylamino)-methylene]-1,3-dihydro-indol-2-one], in assay [1] (Homo sapiens), the inhibition at 10 µM is 98.8%. For the same compound, in assay [2], the IC50 turned out to be 380 nM.
As for `COc1cccc(-c2ccc3c(c2)NC(=O)C3=CNc2ccc(N3CCN(C)CC3)cc2)c1` [Example 268, 6-(3-Methoxy-phenyl)-3-{[4-(4-methyl-piperazin-1-yl)-phenylamino]-methylene}-1,3-dihydro-indol-2-one], the IC50 is at least 10000 nM in assay [1] (Homo sapiens) and 80 nM in assay [2].
Regarding `Cc1cccc2c1C(=CNc1ccc3c(c1)OCO3)C(=O)N2` [Example 124, 3-(Benzo[1,3]dioxol-5-ylaminomethylene)-4-methyl-1,3-dihydro-indol-2-one], in assay [1] (Homo sapiens), the inhibition at 10 µM amounted to 71.9% and the IC50 came to 1960 nM. This compound also returned a half-inhibitory concentration (IC50) in assay [2] of 520 nM.
Taken in the same sequence, the figures for `Cc1cccc2c1C(=CNc1ccc(CC(=O)O)cc1)C(=O)N2` [Example 131, {4-[(4-Methyl-2-oxo-1,2-dihydro-indol-3-ylidenemethyl)-amino]-phenyl}-acetic acid] were 96.7%, 1550 nM and 770 nM.
Consider `CCN(CC)c1ccc(NC=C2C(=O)Nc3cccc(C)c32)cc1` [Example 189, 3-[(4-Diethylamino-phenylamino)-methylene]-4-methyl-1,3-dihydro-indol-2-one], for which the inhibition at 10 µM in assay [1] (Homo sapiens) is 98.2%. The same compound registered a concentration for half-maximal inhibition (IC50) in assay [2] of 70 nM.
The like results for `N#Cc1ccc2c(c1)C(=CNc1ccc(N3CCOCC3)cc1)C(=O)N2` [Example 237, 3-[(4-Morpholin-4-yl-phenylamino)-methylene]-2-oxo-2 ,3-dihydro-1 h-indole-5-carbonitrile] were, in that order, 36.4% and 710 nM.
Consider `O=C1Nc2cc(F)ccc2C1=CNc1ccc(OCCN2CCCC2)cc1` [Example 271, 6-Fluoro-3-{[4-(2-pyrrolidin-1-yl-ethoxy)-phenylamino]-methylene}-1,3-dihydro-indol-2-one], for which the concentration for half-maximal inhibition (IC50) in assay [2] was determined as 130 nM. The “Miles Assay % inhibition” value in assay [3] (40 mg/kg, corn oil, oral) came out at 98%.
On to `O=C1Nc2ccccc2C1=CNc1ccc(OCCCI)cc1` [Example 200, 3-{[4-(3-Iodo-propoxy)-phenylamino]-methylene}-1,3-dihydro-indol-2-one], for which, in assay [1] (Homo sapiens), the inhibition at 10 µM came to 75.2% and the IC50 came out at 3480 nM. The same compound had a 50% inhibitory concentration (IC50) in assay [2] of 740 nM.
For `O=C1Nc2ccccc2C1=CNc1ccc(S(=O)(=O)NCCO)cc1` [Example 192, N-(2-Hydroxy-ethyl)-4-[(2-oxo-1,2-dihydro-indol-3-ylidenemethyl)-amino]-benzenesulfonamide], in assay [1] (Homo sapiens), the inhibition at 10 µM came to 98.7% and the IC50 worked out at 1530 nM. For the same compound, in assay [2], the IC50 turned out to be 590 nM.
As to `Cc1cccc2c1C(=CNc1ccc3ncsc3c1)C(=O)N2` [Example 92, 3-(Benzothiazol-6-ylaminomethylene)-4-methyl-1,3-dihydro-indol-2-one], the inhibition at 10 µM in assay [1] (Homo sapiens) stood at 69%. For the same compound, the half-maximal inhibitory concentration (IC50) in assay [1] (Homo sapiens) was determined as 1770 nM; in assay [2], 150 nM.
As for `NC(=O)c1ccc(NC=C2C(=O)Nc3ccc(F)cc32)cc1` [Example 170, 4-[(5-Fluoro-2-oxo-1,2-dihydro-indol-3-ylidenemethyl)-amino]-benzamide], the values for the IC50 in assay [1], in assay [1] (Homo sapiens) and in assay [2] were 590 nM, at most 1000 nM and 410 nM, respectively. Further, in assay [1] (Homo sapiens), the inhibition at 10 µM came out at 96.7%.
For the compound `Cc1ccc(NC=C2C(=O)Nc3ccccc32)cc1O` [Example 48, 3-[(3-Hydroxy-4-methyl-phenylamino)-methylene]-1,3-dihydro-indol-2-one], the inhibition at 10 µM in assay [1] (Homo sapiens) stood at 95.4%. The same compound showed an IC50 in assay [2] of 740 nM.
As to `NS(=O)(=O)c1ccc(NC=C2C(=O)Nc3ccc(F)cc32)cc1` [Example 166, 4-[(5-Fluoro-2-oxo-1,2-dihydro-indol-3-ylidenemethyl)-amino]-benzenesulfonamide], the inhibition at 10 µM in assay [1] (Homo sapiens) worked out at 49.2%. In assay [2], this compound returned an IC50 of 660 nM.
For `COc1ccc(NC=C2C(=O)Nc3ccc(Cl)cc32)cc1OC` [Example 102, 5-Chloro-3-[(3,4-dimethoxyphenylamino)-methylene]-1,3-dihydro-indol-2-one], in assay [1] (Homo sapiens), the inhibition at 10 µM came to 82.5% and the IC50 is 5910 nM. Also, the IC50 in assay [2] turned out to be 650 nM.
